In paper PMC10531517, “Rational Design of Novel Peptidomimetics against Influenza A Virus: Biological and Computational Studies” (International Journal of Molecular Sciences, 2023):
Where a SMILES comes first, the peptide text is derived from it. [ ]: non-standard residue; d: D form. NMeH = CN[C@@H](Cc1c[nH]cn1)C(=O)O; Gly(N-CH2CH2OH) = O=C(O)CNCCO; NMeL = CN[C@@H](CC(C)C)C(=O)O

Test system: A/Parma/24/09 H1N1 virus
Settings: for EC50: read-out: EC50 (concentration that reduced cytopathic effect by 50%)

Compound: CC(=O)N[C@@H](CO)C(=O)N(C)[C@@H](CC(C)C)C(=O)N[C@@H](CC(=O)O)C(=O)N[C@@H](CS)C(N)=O [Peptide 4, S(N-Me)LDC] (Ac-S[NMeL]DC-NH2)
- SI (ratio of CC50 and EC50): >2.9 × 10^5
- EC50: 0.085 nM

Compound: CC(=O)N[C@@H](CO)C(=O)N[C@@H](CCCCN)C(=O)N(C)[C@@H](Cc1c[nH]cn1)C(=O)N[C@@H](CO)C(N)=O [Peptide 9, SK(N-Me)HS] (Ac-SK[NMeH]S-NH2)
- SI (ratio of CC50 and EC50): >1.78 × 10^3
- EC50: 0.143 nM

Compound: CC(=O)N[C@@H](CO)C(=O)N[C@@H](CCCCN)C(=O)N[C@@H](Cc1c[nH]cn1)C(=O)N(CCO)CC(N)=O [Peptide 18, SKHNhS] (Ac-SKH[Gly(N-CH2CH2OH)]-NH2)
- SI (ratio of CC50 and EC50): >5 × 10^5
- EC50: 0.05 nM
